Measurements from patent US9226929B2, “Pharmaceutically active disubstituted triazine derivatives” (Bayer Intellectual Property GMBH, priority 2011, dated 2016).

Experiments:
CDK7/CyclinH/MAT1 [1] = target: T1, CDK7/CyclinH/MAT1 (Homo sapiens, UniProt P50613); assay: LanthaScreen Eu Kinase Binding Assay, CDK7; details: tracer 236, read-out: CDK7 (activity range), Kd
T1 construct: His; purchased Carna Biosciences
Description: (§1) This protocol describes how the LanthaScreen Eu Kinase Binding Assay was performed to determine dissociation constants (Kd) of compounds of general formula (I) and CDK/Cyclin complexes. The principle behind this assay is based upon the binding and displacement of an Alexa Fluor 647-labeled tracer, which binds to the active site of kinases. Binding of the tracer to the kinase is detected using a Eu-labeled antibody. Simultaneous binding of both the tracer and antibody to the kinase gives rise to a FRET-signal. Binding of an inhibitor to the kinase competes for binding with the tracer, resulting in a loss of FRET.
(§2) The compounds of general formula (I) summarized in Table 1 were diluted from a 10 mM DMSO stock solution 1:10 in a total volume of 15 μL DMSO. This compound predilution was then serial diluted 1:3 over 8 steps in DMSO and briefly spun down. Each compound solution was now diluted 1:33.33 in kinase buffer (HEPES: 20 mM, pH: 8.0; MgCl2: 10 mM; DTT: 1 mM; Brij-35: 0,01%), mixed thoroughly and spun down. For every sample, 5 μL of the diluted compound were mixed with 5 μL tracer working solution (e.g. 60 nM tracer 236 in kinase buffer for CDK2/Cyclin A) and 5 μL CDK/Cyclin/Anti-GST-AB-working solution (e.g. 15 nM CDK2/Cyclin A, 1:250 dilution of Anti-GST-AB in kinase buffer) in a well of a small volume 384 well plate (Corning Incorporated, Corning, N.Y., USA; order no. 3673). The tracer concentration was adjusted to its dissociation constant (Kd) for the CDK/Cyclin, which was 30 nM for CDK2/Cyclin A, CDK7/Cyclin H and CDK9/Cyclin T1, 20 nM for CDK8/Cyclin C, and 35 nM for CDK9/Cyclin K. For negative controls, in each well 5 μL of DMSO working solution (3% DMSO diluted in kinase buffer) was mixed with 5 μL Anti-GST-AB working solution (e.g. 1:250 dilution of Anti-GST-AB in kinase buffer for CDK2/Cyclin A) and 5 μL Tracer working solution (e.g. 60 nM Tracer 236 in kinase buffer for CDK2/Cyclin A). For positive controls, in each well 5 μL of DMSO working solution (3% DMSO diluted in kinase buffer) was mixed with 5 μL CDK/Cyclin/Anti-GST-AB-working solution: (e.g. 15 nM CDK2/Cyclin A, 1:250 dilution of Anti-GST-AB in kinase buffer) and 5 μL Tracer working solution (e.g. 60 nM Tracer 236 in kinase buffer for CDK2/Cyclin A). Positive and negative controls were calculated from at least 8 different sample wells. The 384 well plates were mixed in a Teleshaker plate mixer (Beckman Coulter, Brea, Calif., USA) at 2000 rpm for 40 sec, and incubated for 1 h at room temperature before reading. The FRET signal was measured at 340 nm excitation, 665 nm and 615 nm emission (for the kinase tracer and LanthaScreen Eu-AB, respectively) with an Envision spectrophotometer (Perkin Elmer, Waltham, Mass., USA) with […]. Kd values were determined from the sigmoidal dose response curves with the software Quattro Workflow (Quattro GmbH, Munich, Germany).

CDK9/Cyclin K = target: T2, CDK9/Cyclin K (Homo sapiens, UniProt P50750); assay: LanthaScreen Eu Kinase Binding Assay, CDK9/Cyclin K; details: tracer 236, read-out: CDK9/Cyclin K (activity range), Kd
T2 construct: His; purchased Invitrogen
T2 sequence (P50750 whole entry): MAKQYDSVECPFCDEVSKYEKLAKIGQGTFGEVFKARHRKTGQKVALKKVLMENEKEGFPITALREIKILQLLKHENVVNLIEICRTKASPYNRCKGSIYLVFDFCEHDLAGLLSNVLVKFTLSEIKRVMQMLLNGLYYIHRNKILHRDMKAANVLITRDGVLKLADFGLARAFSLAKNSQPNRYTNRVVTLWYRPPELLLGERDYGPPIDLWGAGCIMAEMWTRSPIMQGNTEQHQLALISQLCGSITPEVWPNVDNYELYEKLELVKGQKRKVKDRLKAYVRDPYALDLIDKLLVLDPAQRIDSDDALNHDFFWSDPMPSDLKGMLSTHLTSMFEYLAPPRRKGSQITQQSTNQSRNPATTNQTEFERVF
T2 sequence (O75909 1-357 isoform O75909-1 partner): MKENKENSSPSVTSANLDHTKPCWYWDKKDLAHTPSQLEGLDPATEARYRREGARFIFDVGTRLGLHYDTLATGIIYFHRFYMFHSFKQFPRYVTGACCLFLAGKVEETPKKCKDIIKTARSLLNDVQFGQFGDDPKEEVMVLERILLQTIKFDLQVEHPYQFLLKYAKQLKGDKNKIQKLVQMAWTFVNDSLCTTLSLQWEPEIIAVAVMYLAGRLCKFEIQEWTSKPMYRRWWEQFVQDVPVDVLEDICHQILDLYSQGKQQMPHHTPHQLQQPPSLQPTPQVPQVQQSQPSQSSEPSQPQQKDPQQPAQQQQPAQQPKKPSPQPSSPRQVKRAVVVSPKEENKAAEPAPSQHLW
Description: as §1, §2

CDK2/CyclinA [2] = target: T3, CDK2/CyclinA (Homo sapiens, UniProt P24941); assay: LanthaScreen Eu Kinase Binding Assay, CDK2; details: tracer 236, read-out: CDK2 (activity range), Kd
T3 construct: GST; purchased Proqinase
Description: as §1, §2

MDAMB468 cells = assay: Cell Viability Assay, MDAMB468 cells; format: cell-based; details: Homo sapiens, MDA-MB-468; 72 h, Cell Titer Glo; read-out: Cell Viability - MDAMB468 cells (activity range), IC50
Description: (§3) 3.4 Cell Viability Assays
(§4) Hela- or MDAMB468-Cells were maintained in RPMI 1640 or McCoy's 5A cell culture medium+glutamine (PAN Biotech GmbH, Aidenbach, Germany; order no. PO4-22100; PO4-05500) supplemented with 10% fetal calf serum “Gold” (PAA Laboratories GmbH, Pasching, Austria; order no. A15-151) and grown at 37° C., 5% CO2. For the cell viability assay, cells were seeded with a density of 400 (Hela cells, DSMZ Braunschweig order no. ACC57) or 800 (MDAMB468 cells, ATCC order no. HTB-132) per well in 25 μL in 384-well plates (Greiner Bio-One, Frickenhausen, Germany; order no. 781080). After overnight incubation at 37° C./5% CO2, 25 nL or 75 nL compound were added to each sample well by using BIOMEK FXP Laboratory Automation Workstation (Beckman Coulter, USA). Wells with cells and 0.1% or 0,3% DMSO in culture medium were used as positive controls, wells with cells and 10 μM staurosporine in culture medium were used as negative controls. The cells were incubated with the compounds for 72 h at 37° C./5% CO2. For measurement of cell viability 25 μL Cell Titer Glo reagent (Promega, Madison, USA; order no. G7573), 1:2 diluted with cell culture medium, was added to each well. The 384we11-plates were placed for 2 min on a orbital microplate shaker and incubated for further 10 min at room temperature to stabilize the luminescence signal.
(§5) Luminescence was measured by Envision Plate Reader (Perkin Elmer, USA). IC50 values were calculated with the software Excel Fit (IDBS, Guildford, UK) from 3-fold dilution series comprising at least 8 concentrations in duplicates.

Hela cells = assay: Cell Viability Assay, Hela cells; format: cell-based; details: Homo sapiens, 72 h, Cell Titer Glo, read-out: Cell Viability - Hela cells (activity range), IC50
Description: as §3, §4, §5

CDK9/Cyclin T1 = target: T4, CDK9/Cyclin T1 (Homo sapiens, UniProt P50750); assay: LanthaScreen Eu Kinase Binding Assay, CDK9/Cyclin T1; details: tracer 236, read-out: CDK9/Cyclin T1 (activity range), Kd
T4 construct: His; purchased Invitrogen
T4 sequence (P50750 whole entry): as the sequence (P50750 whole entry) above
T4 sequence (O60563 whole entry partner): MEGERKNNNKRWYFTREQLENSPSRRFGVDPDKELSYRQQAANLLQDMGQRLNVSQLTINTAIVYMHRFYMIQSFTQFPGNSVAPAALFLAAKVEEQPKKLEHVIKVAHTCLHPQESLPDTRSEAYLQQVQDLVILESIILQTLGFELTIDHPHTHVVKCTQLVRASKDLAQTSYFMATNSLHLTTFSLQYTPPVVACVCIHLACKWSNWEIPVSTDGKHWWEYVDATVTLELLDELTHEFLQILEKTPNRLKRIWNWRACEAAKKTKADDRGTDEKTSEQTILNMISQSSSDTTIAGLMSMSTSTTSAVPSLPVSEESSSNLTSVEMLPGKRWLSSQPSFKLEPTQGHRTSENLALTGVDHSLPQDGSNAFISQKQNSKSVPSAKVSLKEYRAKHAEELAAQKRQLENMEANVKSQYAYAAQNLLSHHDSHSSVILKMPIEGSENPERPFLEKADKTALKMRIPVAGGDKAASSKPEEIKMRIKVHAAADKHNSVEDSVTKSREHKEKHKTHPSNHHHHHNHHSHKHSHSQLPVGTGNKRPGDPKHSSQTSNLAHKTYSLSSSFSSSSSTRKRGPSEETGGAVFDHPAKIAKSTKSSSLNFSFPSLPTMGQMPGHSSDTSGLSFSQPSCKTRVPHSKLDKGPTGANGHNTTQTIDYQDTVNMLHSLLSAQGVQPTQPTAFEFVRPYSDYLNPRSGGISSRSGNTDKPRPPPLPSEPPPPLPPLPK
Description: as §1, §2

CDK2/CyclinA [3] = target: T3, CDK2/CyclinA; assay: Lance Ultra KinaSelect Assay, CDK2; format: biochemical; details: ATP 3 μM; read-out: CDK2 LANCE assay (activity range), IC50
Description: (§6) 2. Measurement of half maximal inhibitory concentration to CDKs This protocol describes how the Lance Ultra KinaSelect Assay was performed to determine half maximal inhibitory concentration (1050) of compounds of general formula (I) and CDK/Cyclin complexes. The principle behind this enzymatic assay is based upon the phosphorylation of the ULight-Peptide Substrat. It is detected by using a specific
(§7) EU-labeled anti-phospho peptide antibody. The binding of the Eu-labeled anti-phospho peptide antibody to the phosphorylated ULight labeled peptide gives rise to a FRET-signal. Binding of an inhibitor to the kinase prevents phosphorylation of the ULight-MBP Substrat, resulting in a loss of FRET.
(§8) The compounds of general formula (I) summarized in Table 5 were diluted from a 10 mM DMSO stock solution 1:10 in a total volume of 15 μL DMSO. This compound predilution was then serial diluted 1:3 over 8 steps in DMSO and briefly spun down. Each compound solution was now diluted 1:20 in Enzymatic Buffer (HEPES: 50 mM, pH: 7.5; MgCl2: 10 mM; EGTA: 1 mM; DTT: 2 mM; Tween-20: 0.01%), mixed thoroughly and spun down. For every sample, 2 μL of the diluted compound were mixed with 6 μL CDK/Cyclin/Substrat solution and 2 μL ATP solution in a well of a small volume 384 well plate (Corning Incorporated, Corning, N.Y., USA; order no. 3673). The CDK/Cyclin was diluted to the appropriate concentration (see Table 3) and the ATP concentration was adjusted to its […] for the CDK/Cyclin, which was 3 μM for CDK2/Cyclin A, 20 μM for CDK1/Cyclin B1, 25 μM for CDK7/Cyclin H and CDK9/Cyclin T1, 55 μM for CDK6/Cyclin D3, 90 μM for CDK4/Cyclin D1 and 125 μM for CDK9/Cyclin K. For negative controls, in each well 2 μL of DMSO solution (1% final DMSO assay concentration) was mixed with 6 μL substrate solution (50 nM ULight MBP final assay concentration) and 2 μL ATP solution (appropriate final concentration see Table 3). For positive controls, in each well 2 μL of DMSO solution (1% final DMSO assay concentration) was mixed with 6 μL CDK/Cyclin/Substrat (appropriate final concentration see Table 3) and 2 μL Tracer ATP solution (appropriate final concentration see Table 3). Positive and negative controls were calculated from at least 8 different sample wells. The 384 well plates were mixed in a Teleshaker plate mixer (Beckman Coulter, Brea, Calif., USA) at 2000 rpm for 40 sec, and incubated for 1 h at room temperature. Before reading, 10 μL the detection buffer (Lance Detection Buffer 1×; EDTA: […]; Eu-Anti-P-MBP: see Table 3) was added. The FRET signal was measured at 340 nm excitation, 665 nm and 615 nm emission (for the kinase tracer and LanthaScreen Eu-AB, respectively) with an Envision spectrophotometer (Perkin Elmer, Waltham, Mass., USA) with 50 μs delay and 300 μs integration time. IC50 values were determined from the sigmoidal dose response curves with the software Quattro Workflow (Quattro GmbH, Munich, Germany).

CDK4/CyclinD1 = target: T5, CDK4/CyclinD1 (Homo sapiens, UniProt P11802); assay: Lance Ultra KinaSelect Assay, CDK4; format: biochemical; details: ATP 90 μM; read-out: CDK4 LANCE assay (activity range), IC50
T5 construct: purchased Invitrogen
T5 sequence (P11802 whole entry): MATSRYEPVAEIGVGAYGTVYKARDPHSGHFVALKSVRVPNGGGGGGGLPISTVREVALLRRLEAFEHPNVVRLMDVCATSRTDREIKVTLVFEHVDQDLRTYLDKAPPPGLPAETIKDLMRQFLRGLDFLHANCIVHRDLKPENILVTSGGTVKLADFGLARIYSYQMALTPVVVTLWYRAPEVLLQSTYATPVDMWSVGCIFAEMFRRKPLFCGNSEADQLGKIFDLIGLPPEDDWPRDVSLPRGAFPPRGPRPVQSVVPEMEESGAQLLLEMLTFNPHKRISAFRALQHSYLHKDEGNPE
T5 sequence (P24385 whole entry partner): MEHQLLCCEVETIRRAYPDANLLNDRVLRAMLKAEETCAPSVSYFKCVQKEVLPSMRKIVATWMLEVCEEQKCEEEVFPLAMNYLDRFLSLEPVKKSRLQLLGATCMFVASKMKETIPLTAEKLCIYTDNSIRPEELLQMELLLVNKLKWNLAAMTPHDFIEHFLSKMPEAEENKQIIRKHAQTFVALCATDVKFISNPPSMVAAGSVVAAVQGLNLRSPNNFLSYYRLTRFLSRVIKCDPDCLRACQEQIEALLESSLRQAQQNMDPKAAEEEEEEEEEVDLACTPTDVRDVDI
Description: as §6, §7, §8

CDK6/CyclinD3 = target: T6, CDK6/CyclinD3 (Homo sapiens, UniProt Q00534); assay: Lance Ultra KinaSelect Assay, CDK6; format: biochemical; details: ATP 55 μM; read-out: CDK6 LANCE assay (activity range), IC50
T6 construct: purchased Carna
T6 sequence (Q00534 whole entry): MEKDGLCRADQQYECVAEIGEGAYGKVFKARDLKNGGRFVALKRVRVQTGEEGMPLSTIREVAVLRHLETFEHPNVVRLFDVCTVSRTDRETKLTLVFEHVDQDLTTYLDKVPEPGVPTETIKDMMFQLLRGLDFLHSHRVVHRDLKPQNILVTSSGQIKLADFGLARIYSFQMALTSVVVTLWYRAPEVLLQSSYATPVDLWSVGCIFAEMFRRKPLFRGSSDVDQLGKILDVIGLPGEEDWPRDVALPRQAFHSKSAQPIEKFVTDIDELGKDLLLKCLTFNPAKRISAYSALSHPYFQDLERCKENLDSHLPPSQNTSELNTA
T6 sequence (P30281 whole entry partner): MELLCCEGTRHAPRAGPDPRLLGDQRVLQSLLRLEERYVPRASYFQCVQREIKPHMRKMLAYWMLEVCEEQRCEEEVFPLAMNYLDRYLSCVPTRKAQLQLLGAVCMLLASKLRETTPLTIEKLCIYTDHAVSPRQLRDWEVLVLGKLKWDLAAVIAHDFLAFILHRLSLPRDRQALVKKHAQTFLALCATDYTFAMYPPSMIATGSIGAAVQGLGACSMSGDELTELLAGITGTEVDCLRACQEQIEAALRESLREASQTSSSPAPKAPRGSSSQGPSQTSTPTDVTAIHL
Description: as §6, §7, §8

CDK7/CyclinH/MAT1 [4] = target: T1, CDK7/CyclinH/MAT1; assay: Lance Ultra KinaSelect Assay, CDK7; format: biochemical; details: ATP 25 μM; read-out: CDK7 LANCE assay (activity range), IC50
Description: as §6, §7, §8

CDK9 = target: T7, CDK9 (Homo sapiens, UniProt P50750); assay: Lance Ultra KinaSelect Assay, CDK9; format: biochemical; details: cyclin partner (T1 or K) not stated; read-out: CDK9 LANCE assay (activity range), IC50
T7 construct: purchased Invitrogen
T7 sequence (P50750 whole entry): as the sequence (P50750 whole entry) above
Description: as §6, §7, §8

CDK1/CyclinB1 = target: T8, CDK1/CyclinB1 (Homo sapiens, UniProt P06493); assay: Lance Ultra KinaSelect Assay, CDK1; format: biochemical; details: ATP 20 μM; read-out: CDK1 LANCE assay (activity range), IC50
T8 construct: purchased Carna
T8 sequence (P06493 whole entry): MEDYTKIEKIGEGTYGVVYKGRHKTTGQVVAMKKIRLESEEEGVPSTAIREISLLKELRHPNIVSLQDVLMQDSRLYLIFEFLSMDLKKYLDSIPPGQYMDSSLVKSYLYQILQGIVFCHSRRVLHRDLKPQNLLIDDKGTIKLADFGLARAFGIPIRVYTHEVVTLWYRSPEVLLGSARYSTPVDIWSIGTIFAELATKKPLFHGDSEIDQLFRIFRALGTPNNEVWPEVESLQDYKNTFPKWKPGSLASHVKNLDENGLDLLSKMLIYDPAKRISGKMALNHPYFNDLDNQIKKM
T8 sequence (P14635 whole entry partner): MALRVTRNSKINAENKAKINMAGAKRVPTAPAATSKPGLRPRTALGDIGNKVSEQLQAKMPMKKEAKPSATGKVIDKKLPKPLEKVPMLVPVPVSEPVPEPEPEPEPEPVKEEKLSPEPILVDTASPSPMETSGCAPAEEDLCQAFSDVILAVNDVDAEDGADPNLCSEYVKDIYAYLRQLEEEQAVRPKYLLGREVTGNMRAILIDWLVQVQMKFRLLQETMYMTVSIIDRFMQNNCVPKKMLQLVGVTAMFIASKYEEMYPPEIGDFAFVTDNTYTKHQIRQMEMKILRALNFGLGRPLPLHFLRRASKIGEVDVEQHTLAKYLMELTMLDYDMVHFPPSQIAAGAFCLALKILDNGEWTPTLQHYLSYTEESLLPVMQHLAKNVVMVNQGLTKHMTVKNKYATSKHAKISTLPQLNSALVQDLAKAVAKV
Description: as §6, §7, §8

[5] = system: NF-kappaB reporter gene activation; assay: NF-kappaB Reporter Assay; format: cell-based; details: Homo sapiens; HEK293 cells, pNFkBluc reporter, 20 ng/ml TNF alpha, 5 h; read-out: NF-kappaB activation (activity range), IC50
Description: 3.2 NF-kappaB Reporter Assay
Cells were maintained in RPMI cell culture medium+glutamine (PAN Biotech GmbH, Aidenbach, Germany) supplemented with 10% fetal calf serum (PAA Laboratories GmbH, Pasching, Austria) and grown at 37° C., 5% CO2. HEK293 cells grown to 50% confluence were transfected with the Amaxa® Cell Line Nucleofector® Kit V (Lonza, Basel, Switzerland, catalog #VCA-1003). Transfections were performed according to manufacturer's optimized protocol for transfection of HEK293 cells. In brief, 2×10^5 cells were transfected with 5 μg highly purified plasmid DNA. Cells were transfected with a NF-kappa B reporter plasmid (pNFkBluc), pTALluc for control, or pMAXGFP for transfection control. After transfection, cells were taken up in 500 μL RPMI1640 cell culture medium, incubated for 1 h at 37° C., and 4.5 ml DMEM without phenol red were added per transfection. Transfected cells were seeded in 96 well plates (Greiner Bio-One, Frickenhausen, Germany, catalog #655098) with 100 μL cell suspension per well and incubated for 48 h. To each well, 100 μL DMEM with 2× concentrated compound diluted from 10 mM DMSO stocks, or 100 μL DMEM with 0.4% DMSO for control wells, was added. The compounds of general formula (I) summarized in Table 6 were used in this assay. Cells were stimulated with 20 ng/ml TNF alpha, and plates were incubated for 5 h at 37° C./5% CO2. Cell culture supernatants were removed to leave 100 μl medium per well, followed by addition of 100 μl Bright Glo luciferase assay reagent (Promega, Madison, Wis., USA, catalog #E2620), and shaking for 5 minutes in the dark. Luminescence was measured with a Victor Photospectrometer (Perkin Elmer, Waltham, Mass., USA). IC50 values were calculated with the software Excel Fit (IDBS, Guildford, UK) from 2-fold dilution series comprising at least 10 concentrations in duplicates.

T1 sequence (P50613 whole entry): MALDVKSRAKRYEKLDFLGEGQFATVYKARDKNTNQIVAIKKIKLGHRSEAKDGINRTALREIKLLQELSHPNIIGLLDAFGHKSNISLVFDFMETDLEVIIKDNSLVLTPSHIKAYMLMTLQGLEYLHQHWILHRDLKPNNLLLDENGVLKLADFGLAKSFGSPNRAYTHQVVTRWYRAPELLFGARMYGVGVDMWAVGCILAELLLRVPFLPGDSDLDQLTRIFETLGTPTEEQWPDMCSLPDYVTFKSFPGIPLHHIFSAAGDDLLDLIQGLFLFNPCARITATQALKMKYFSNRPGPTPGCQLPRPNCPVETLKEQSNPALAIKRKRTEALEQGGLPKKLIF
T1 sequence (P51946 whole entry partner): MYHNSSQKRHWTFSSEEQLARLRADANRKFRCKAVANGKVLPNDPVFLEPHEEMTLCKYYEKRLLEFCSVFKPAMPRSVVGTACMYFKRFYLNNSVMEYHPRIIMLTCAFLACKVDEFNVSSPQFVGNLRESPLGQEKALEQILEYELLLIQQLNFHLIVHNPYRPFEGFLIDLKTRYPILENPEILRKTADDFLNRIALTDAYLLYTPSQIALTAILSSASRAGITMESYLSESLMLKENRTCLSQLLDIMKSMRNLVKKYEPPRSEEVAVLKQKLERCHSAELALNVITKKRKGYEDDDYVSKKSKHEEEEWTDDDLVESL
T1 sequence (P51948 whole entry partner): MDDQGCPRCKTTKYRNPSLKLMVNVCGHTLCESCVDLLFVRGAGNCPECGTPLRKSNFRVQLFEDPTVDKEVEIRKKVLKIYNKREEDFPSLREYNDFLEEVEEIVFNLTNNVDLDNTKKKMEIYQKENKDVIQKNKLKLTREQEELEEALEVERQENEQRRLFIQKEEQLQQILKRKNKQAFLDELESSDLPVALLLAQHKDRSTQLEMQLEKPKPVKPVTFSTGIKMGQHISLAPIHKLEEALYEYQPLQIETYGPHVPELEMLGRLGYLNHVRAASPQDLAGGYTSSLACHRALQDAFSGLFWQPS

Row | Kd (CDK7/CyclinH/MAT1 [1]) | Kd (CDK9/Cyclin K) | Kd (CDK2/CyclinA [2]) | IC50 (MDAMB468 cells) | IC50 (Hela cells) | Kd (CDK9/Cyclin T1) | IC50 (CDK2/CyclinA [3]) | IC50 (CDK4/CyclinD1) | IC50 (CDK6/CyclinD3) | IC50 (CDK7/CyclinH/MAT1 [4]) | IC50 (CDK9) | IC50 (CDK1/CyclinB1) | IC50 [5] | Compound
1 | > 10 µM | < 0.1 µM | 0.1 to 1 µM | > 10 µM | > 10 µM | < 0.1 µM |  |  |  |  |  |  |  | NS(=O)(=O)Cc1cccc(Nc2ncnc(N3Cc4ccncc4C3)n2)c1 [Compound B49, 3-[(4-(1H-Pyrrolo[3,4-c]pyridin-2(3H)-yl)-1,3,5-triazin-2-yl)amino]-benzenemethanesulfonamide]
2 |  | 1 to 10 µM |  |  |  | 1 to 10 µM | > 10 µM | > 10 µM | > 10 µM | > 10 µM | 1 to 10 µM | > 10 µM |  | CN(C)CCC1CCCCN1c1ncnc(Nc2cccc(CS(N)(=O)=O)c2)n1 (racemic) [Compound B8, rac-3-[(4-(2-(2-(Dimethylamino)ethyl)piperidin-1-yl)-1,3,5-triazin-2-yl)amino]benzenemethanesulfonamide]
3 | > 10 µM | 0.1 to 1 µM | > 10 µM |  |  | 0.1 to 1 µM |  |  |  |  |  |  | > 10 µM | NS(=O)(=O)Cc1cccc(Nc2ncnc(N3CCC[C@@H]3COCc3ccccc3)n2)c1 [Compound B30, (R)-3-[(4-(2-(Benzyloxymethyl)pyrrolidin-1-yl)-1,3,5-triazin-2-yl)amino]benzenemethanesulfonamide]
4 | > 10 µM | < 0.1 µM | 1 to 10 µM | 1 to 10 µM | > 10 µM | < 0.1 µM |  |  |  |  |  |  |  | NS(=O)(=O)Cc1cccc(Nc2ncnc(N3CCC[C@@H]3c3ccccc3)n2)c1 [Compound B34, (R)-3-[(4-(2-Phenylpyrrolidin-1-yl)-1,3,5-triazin-2-yl)amino]-benzenemethanesulfonamide]
